Reference: patent US6548042B2, “Bis-phosphonate compounds” (priority 2000, dated 2003)
Where “and” joins values, the source holds several entries; their conditions need not be identical. Equal values may be shown once.

System: OHS cells
Experiment: Antitumour efficacy, OHS osteogenic sarcoma model in nude rats
Type: in vivo
Conditions: for Mean disease-free latency: 7 days after cell inoculation
Description: Initially, a skeletal metastases model in nude rats, including the human breast carcinoma line MT-1 (1) was tested. A total of 1×10^6 cells were injected into the left vintricula of the heart (L.V.) of 4-5 weeks old nude rats (2). A primary osteogenic sarcoma model in nude rats, was established by intratibial (i.t.) injection of 1×10^6 OHS cells (3-5). A total of 20 animals, allocated in four groups (n=5 for each group) were used for both cell lines. The animals inoculated with MT-1 cells were treated with 200, 300 or 400 MBq/kg of 46a seven days after cell injection. The animals inoculated with OHS cells were treated with 100, 200 or 400 MBq/kg of 46a seven days after cell inoculation. The control groups (MT-1 and OHS) received saline only. Doses were corrected for the actual weight of each animal and administered by single bolus tail vein injections.
The OHS model had been established by intratibial injections of the osteogenic sarcoma (OHS) cell line in immuno-deficient rats.^86,87 Eventually, the rats develop palpable tibial tumours. At the time of treatment (7 days after cell inoculation) the tumours fill approximately 50-60% of the tibial cavity and have a substantial osteoid production closely resembling that of osteoblastic osteosarcomas in the clinic.^88 The model has been used to evaluate the antitumour efficacy of several drugs currently used in the treatment of bone-related cancer.
Disease-free latency was defined as the period between tumour cell inoculation and the time the diameter of the tumour-injected tibia had increased by 2-3 mm compared with that of the non-injected contralateral leg.

[1] = all animals treated (100, 200, 400 MBq/kg)

O=P(O)(O)C(O)(Cc1cccc([131I])c1)P(=O)(O)O [46a, 1-hydroxy(m-[^131I and ^125I]-iodophenyl)-ethylidene-1,1-bisphosphonic acid]
Disease-free latency, range (100 MBq/kg): 18 to 32 days
Mean disease-free latency (100 MBq/kg, n=5): 27 days
Survivors (100 MBq/kg, n=5): one survivor
Disease-free latency, range (200 MBq/kg): 26 to 36 days
Mean disease-free latency (200 MBq/kg, n=5): 30 days
Survivors (200 MBq/kg, n=5): one survivor
Disease-free latency, range (400 MBq/kg): 26 to 36 days
Mean disease-free latency (400 MBq/kg, n=5): 31 days
Long time survivors (>100 days) [1]: 33%
Long time survivors (>100 days), animals [1]: 5 of 15
Long time survivors (highest dose, 400 MBq/kg, n=5): 60%
Long time survivors (animals) (highest dose, 400 MBq/kg, n=5): 3 and 3 of 5
Long time survivors (animals) (highest dose, 400 MBq/kg, n=5, listed as 1): 3 of 5
P of increase in disease-free latency time compared to the other groups (highest dose, Kruskal-Wallis test): < 05
Lifetime after treatment (osteosarcoma model): dramatic increase in lifetime
